{
  "source": "patent US20230381139A1",
  "about": "“METHODS OF TREATING AND/OR PREVENTING ALZHEIMER’S DISEASE WITH R-CARVEDILOL” (priority 2020, published 2023)",
  "key": {"[1]": {"system": "hippocampal CA1 and subiculum neurons of 3×TG+/− mice", "assay": "Nissl staining, neuron density in 3×TG+/− mice", "format": "in vivo, mouse", "conditions": "12-15 months old 3×TG+/− mice, 3.2 mg/kg/day for one month; vs DMSO", "experimental": "Genetically engineered mice of 12-15 months old, 3×TG+/− (Oddo et al., 2003), RyR2-E4872Q+/− (EQ+/−)(Chen et al., 2014), 3×TG+/−/RyR2-E48720+/− (3×TG+/−/EQ+/−), and WT littermates of both sexes were used. Sex differences, which may produce biological variables, were not investigated in this study. R-carvedilol (R-CV) (3.2 mg/kg/day) and vehicle control (DMSO) were delivered to 3×TG+/− mice in drinking water for one month. As shown previously, only heterozygous RyR2-E4872Q+/− mutant mice were produced as homozygous E4872Q+/+mutation is embryonic lethal (Chen et al., 2014). Functional RyR2s are tetrameric channels formed by 4 RyR2 monomers. The heterozygous E4872Q+/− mutant mice (harboring one WT allele and one E4872Q mutant allele) will produce a mixture of homo- and hetero-tetrameric channels that contain the WT, E48720 mutant, or both WT/E4872Q mutant monomers. Thus, the RyR2-E4872Q mutation can exert its negative impact not only on the function of the E4872Q homo-tetramers, but also on the function of the WT monomer in the WT/E4872Q hetero-tetrameric channels.\nFor the Nissl staining, paraffin-embedded brain tissue sections (5 μm) were immersed in xylene (5 min, 2 times), rehydrated in absolute ethanol (5 min, 2 times) followed by 95%, 75% and 50% solutions of ethanol in water (5 min each), then washed in distilled water for 2 times, 5 min each. […]"}, "[2]": {"system": "hippocampal CA3-CA1 pathway of 3×TG+/− mice", "assay": "Long-term potentiation recording in hippocampal slices from treated 3×TG+/− mice", "format": "in vivo, mouse", "conditions": "brain slices from 12-15 months old 3×TG+/− mice, 3.2 mg/kg/day for one month; vs DMSO", "experimental": "Schaffer collateral fibers were stimulated at the CA3 subfield to record field excitatory postsynaptic potentials (fEPSPs) in the CA1 stratum radiatum of transverse hippocampal slices ([…]) from all genotypes and drug-treated mice at different ages. After recovering at room temperature for 1 h (or 2 h for brain slices from drug-treated mice), hippocampal slices were allowed to recover in the recording chamber for additional 10 min. To evaluate basal synaptic transmission, different stimulation strengths (0 μA to 200 μA in steps of 20 μA) were applied and plotted fEPSP slopes versus the current input to compare the slope of input/output (I/O) curves of fEPSP. In the experiments that followed, stimulus current was adjusted so that fEPSP stabilized at 40-50% of maximum. Baseline was recorded for at least […] until the differences among fEPSP slopes were within 10%. Long-term potentiation (LTP) was induced using a tetanic high-frequency stimulation (HFS; 4 trains of 100 pulses at 100 Hz, with 20-sec intervals). Synaptic responses were recorded for at least 60 min after tetanization and quantified as the slope of the evoked fEPSP as percentage of the baseline."}},
  "data": [
    {"compound": "COc1ccccc1OCCNC[C@@H](O)COc1cccc2[nH]c3ccccc3c12", "note": "[R-carvedilol, R-(+)-carvedilol]", "values": [
      {"measurement": "density of neurons in the hippocampal CA1 region", "setting": "[1]", "result": "no significant difference"},
      {"measurement": "density of neurons in the subiculum area", "setting": "[1]", "result": "significantly higher"},
      {"measurement": "hippocampal LTP (potentiation of fEPSP slope)", "setting": "[2]", "result": "significantly enhanced"}
    ]}
  ]
}
